# Reference: ChEMBL document CHEMBL1148906, “Two pyranocoumarins from the seeds of Calophyllum polyanthum” (2004)
# System: Human alphaherpesvirus 2
# Assay: Antiherpetic activity against HSV2 in african green monkey Vero cells assessed as inhibition of virus-induced cytopathic effect
# Assay type: functional
# Settings: Human alphaherpesvirus 2, Vero
row,SMILES,GI50 [µg/mL]
1,CC(C)=CCc1c(O)c2c(c3c1OC(=O)C[C@H]3c1ccccc1)O[C@@H](C)[C@@H](C)C2=O [CALOPOLYANOLIDE D],> 250
2,CC(C)=CCc1c(O)c2c(c3c1OC(=O)C[C@H]3c1ccccc1)O[C@@H](C)[C@H](C)C2=O [CALOPOLYANOLIDES C],> 250
